Results: PMC7180948, “New Insights into 4-Anilinoquinazolines as Inhibitors of Cardiac Troponin I–Interacting Kinase (TNNi3K)” (Molecules, 2020)

How the values were obtained:
Assay in all cases: biochemical
Set-up in all cases: KINOMEscan competition binding panel (Eurofins DiscoverX), single concentration, percent inhibition
Conditions in all cases: read-out: 15 at 1 µM % inhibition
CAMK2G = CAMK2G (Homo sapiens, UniProt Q13555)
How it was run: (§1)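 KINOMEscan binding panel of >400 kinases, run by Eurofins DiscoverX, with compounds tested at a single concentration of 1 µM.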

CDK3 = CDK3 (Homo sapiens, UniProt Q00526)
How it was run: as §1

CSNK1G2 = CSNK1G2 (Homo sapiens, UniProt P78368)
How it was run: as §1

CSNK1G3 = CSNK1G3 (Homo sapiens, UniProt Q9Y6M4)
How it was run: as §1

DYRK1A = DYRK1A (Homo sapiens, UniProt Q13627)
How it was run: as §1

EPHB3 = EPHB3 (Homo sapiens, UniProt P54753)
How it was run: as §1

ERK1 = molecular target: T1, ERK1 (Homo sapiens, UniProt P27361)
T1 construct: gene MAPK3
How it was run: as §1

FLT3(D835V) = FLT3(D835V) (Homo sapiens, UniProt P36888, D835V)
How it was run: as §1

FLT3(ITD,D835V) = FLT3(ITD,D835V) (Homo sapiens, UniProt P36888, D835V/ITD)
How it was run: as §1

FLT3(N841I) = FLT3(N841I) (Homo sapiens, UniProt P36888, N841I)
How it was run: as §1

GRK1 = GRK1 (Homo sapiens, UniProt Q15835)
How it was run: as §1

ITK = ITK (Homo sapiens, UniProt Q08881)
How it was run: as §1

MAP3K15 = MAP3K15 (Homo sapiens, UniProt Q6ZN16)
How it was run: as §1

MEK3 = molecular target: T2, MEK3 (Homo sapiens, UniProt P46734)
T2 construct: gene MAP2K3
How it was run: as §1

MST1R = MST1R (Homo sapiens, UniProt Q04912)
How it was run: as §1

PIP5K1A = PIP5K1A (Homo sapiens, UniProt Q99755)
How it was run: as §1

PKN2 = PKN2 (Homo sapiens, UniProt Q16513)
How it was run: as §1

PRKCD = PRKCD (Homo sapiens, UniProt Q05655)
How it was run: as §1

PRKCE = PRKCE (Homo sapiens, UniProt Q02156)
How it was run: as §1

RIPK5 = molecular target: T3, RIPK5 (Homo sapiens, UniProt Q6XUX3)
T3 construct: gene DSTYK
How it was run: as §1

[1] = molecular target: T4, RPS6KA4(Kin.Dom.1-N-terminal) (Homo sapiens, UniProt O75676)
T4 construct: Kin.Dom.1-N-terminal
How it was run: as §1

TAOK3 = TAOK3 (Homo sapiens, UniProt Q9H2K8)
How it was run: as §1

TSSK3 = TSSK3 (Homo sapiens, UniProt Q96PN8)
How it was run: as §1

WNK2 = WNK2 (Homo sapiens, UniProt Q9Y3S1)
How it was run: as §1

T2 sequence (P46734 whole entry): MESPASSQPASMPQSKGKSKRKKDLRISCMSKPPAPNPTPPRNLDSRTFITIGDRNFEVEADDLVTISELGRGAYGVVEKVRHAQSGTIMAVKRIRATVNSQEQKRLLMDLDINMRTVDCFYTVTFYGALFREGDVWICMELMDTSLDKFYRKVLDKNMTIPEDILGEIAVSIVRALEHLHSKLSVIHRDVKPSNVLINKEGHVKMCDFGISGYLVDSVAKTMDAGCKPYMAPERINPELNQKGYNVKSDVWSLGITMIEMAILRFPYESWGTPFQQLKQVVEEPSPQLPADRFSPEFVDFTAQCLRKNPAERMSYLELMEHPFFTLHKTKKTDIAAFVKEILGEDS
T4 sequence (O75676 whole entry): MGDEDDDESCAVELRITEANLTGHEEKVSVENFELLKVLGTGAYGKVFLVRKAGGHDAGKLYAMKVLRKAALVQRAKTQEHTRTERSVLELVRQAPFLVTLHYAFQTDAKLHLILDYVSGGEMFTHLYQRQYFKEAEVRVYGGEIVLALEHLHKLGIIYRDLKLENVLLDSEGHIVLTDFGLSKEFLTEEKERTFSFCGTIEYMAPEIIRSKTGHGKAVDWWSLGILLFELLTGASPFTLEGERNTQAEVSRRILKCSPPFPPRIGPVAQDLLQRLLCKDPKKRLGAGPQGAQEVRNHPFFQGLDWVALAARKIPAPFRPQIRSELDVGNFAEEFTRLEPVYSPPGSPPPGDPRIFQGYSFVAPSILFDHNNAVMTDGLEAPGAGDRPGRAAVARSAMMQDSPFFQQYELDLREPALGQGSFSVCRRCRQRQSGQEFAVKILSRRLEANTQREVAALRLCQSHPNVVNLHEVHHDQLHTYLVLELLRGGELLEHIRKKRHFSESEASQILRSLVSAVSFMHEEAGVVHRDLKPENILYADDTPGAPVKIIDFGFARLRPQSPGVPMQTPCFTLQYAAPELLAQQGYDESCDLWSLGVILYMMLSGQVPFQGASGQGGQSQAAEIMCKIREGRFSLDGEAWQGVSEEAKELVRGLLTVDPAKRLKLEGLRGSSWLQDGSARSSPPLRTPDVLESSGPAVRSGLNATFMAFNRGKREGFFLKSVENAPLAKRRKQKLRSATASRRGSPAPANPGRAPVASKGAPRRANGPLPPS
T3 sequence (Q6XUX3 whole entry): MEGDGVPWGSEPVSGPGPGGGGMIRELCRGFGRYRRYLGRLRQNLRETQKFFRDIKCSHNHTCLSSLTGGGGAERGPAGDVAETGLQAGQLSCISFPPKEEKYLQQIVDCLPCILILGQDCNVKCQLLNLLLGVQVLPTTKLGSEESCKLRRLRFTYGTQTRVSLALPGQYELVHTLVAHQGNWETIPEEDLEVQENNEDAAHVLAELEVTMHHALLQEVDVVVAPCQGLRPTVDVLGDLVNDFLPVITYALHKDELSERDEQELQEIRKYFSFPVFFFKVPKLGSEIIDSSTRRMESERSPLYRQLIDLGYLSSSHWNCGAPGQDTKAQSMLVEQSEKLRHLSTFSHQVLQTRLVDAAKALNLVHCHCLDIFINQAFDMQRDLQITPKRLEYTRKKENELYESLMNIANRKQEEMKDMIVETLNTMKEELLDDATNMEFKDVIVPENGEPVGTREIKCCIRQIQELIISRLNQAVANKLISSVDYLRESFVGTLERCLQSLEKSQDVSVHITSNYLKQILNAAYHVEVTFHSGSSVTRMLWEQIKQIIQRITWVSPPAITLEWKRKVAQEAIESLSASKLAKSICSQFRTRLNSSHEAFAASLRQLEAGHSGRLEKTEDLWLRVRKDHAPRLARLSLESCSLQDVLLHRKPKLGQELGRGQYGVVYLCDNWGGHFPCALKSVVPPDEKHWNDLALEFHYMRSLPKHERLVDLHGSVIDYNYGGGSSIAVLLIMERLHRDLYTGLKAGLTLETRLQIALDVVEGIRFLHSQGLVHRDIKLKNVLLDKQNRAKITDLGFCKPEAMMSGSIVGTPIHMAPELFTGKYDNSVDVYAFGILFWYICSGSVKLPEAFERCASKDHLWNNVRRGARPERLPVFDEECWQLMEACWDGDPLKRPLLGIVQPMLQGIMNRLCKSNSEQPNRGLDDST
Sequence of MST1R (Q04912 whole entry): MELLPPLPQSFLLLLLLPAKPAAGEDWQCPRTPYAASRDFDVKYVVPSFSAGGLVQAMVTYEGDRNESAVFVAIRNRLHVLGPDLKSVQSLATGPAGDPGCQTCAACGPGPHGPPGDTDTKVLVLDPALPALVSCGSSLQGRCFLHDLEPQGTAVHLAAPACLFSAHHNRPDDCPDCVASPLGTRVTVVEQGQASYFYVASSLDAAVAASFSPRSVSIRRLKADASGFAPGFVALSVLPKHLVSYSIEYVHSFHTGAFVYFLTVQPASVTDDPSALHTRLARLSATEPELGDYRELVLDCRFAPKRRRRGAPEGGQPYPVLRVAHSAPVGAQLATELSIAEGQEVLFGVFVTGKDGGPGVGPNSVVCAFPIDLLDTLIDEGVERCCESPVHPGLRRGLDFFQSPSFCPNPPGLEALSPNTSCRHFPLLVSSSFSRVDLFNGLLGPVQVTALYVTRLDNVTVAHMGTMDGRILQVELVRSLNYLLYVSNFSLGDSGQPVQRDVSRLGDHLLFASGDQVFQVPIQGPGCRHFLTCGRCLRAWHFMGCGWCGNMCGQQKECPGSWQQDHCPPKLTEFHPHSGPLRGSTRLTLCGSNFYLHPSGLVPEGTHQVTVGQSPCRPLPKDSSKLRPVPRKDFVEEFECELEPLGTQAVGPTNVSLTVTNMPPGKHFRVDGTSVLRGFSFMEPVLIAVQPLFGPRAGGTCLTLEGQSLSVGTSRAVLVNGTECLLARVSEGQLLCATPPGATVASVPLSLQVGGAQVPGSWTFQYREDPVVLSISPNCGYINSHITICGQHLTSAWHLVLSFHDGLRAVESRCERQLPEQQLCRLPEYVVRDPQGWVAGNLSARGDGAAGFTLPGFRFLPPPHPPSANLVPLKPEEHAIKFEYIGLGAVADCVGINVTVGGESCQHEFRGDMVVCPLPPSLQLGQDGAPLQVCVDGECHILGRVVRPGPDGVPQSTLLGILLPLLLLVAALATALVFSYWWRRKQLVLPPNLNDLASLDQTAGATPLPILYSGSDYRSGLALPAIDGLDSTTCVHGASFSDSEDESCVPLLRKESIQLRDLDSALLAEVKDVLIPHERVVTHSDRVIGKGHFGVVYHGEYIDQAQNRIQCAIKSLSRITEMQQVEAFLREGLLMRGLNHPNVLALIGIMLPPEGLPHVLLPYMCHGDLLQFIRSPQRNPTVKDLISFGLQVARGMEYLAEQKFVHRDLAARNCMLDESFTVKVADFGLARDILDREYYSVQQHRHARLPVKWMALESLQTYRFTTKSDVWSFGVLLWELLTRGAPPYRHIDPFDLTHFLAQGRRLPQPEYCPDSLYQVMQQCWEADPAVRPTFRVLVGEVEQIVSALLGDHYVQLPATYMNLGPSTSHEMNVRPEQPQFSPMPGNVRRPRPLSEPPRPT
Sequence of EPHB3 (P54753 whole entry): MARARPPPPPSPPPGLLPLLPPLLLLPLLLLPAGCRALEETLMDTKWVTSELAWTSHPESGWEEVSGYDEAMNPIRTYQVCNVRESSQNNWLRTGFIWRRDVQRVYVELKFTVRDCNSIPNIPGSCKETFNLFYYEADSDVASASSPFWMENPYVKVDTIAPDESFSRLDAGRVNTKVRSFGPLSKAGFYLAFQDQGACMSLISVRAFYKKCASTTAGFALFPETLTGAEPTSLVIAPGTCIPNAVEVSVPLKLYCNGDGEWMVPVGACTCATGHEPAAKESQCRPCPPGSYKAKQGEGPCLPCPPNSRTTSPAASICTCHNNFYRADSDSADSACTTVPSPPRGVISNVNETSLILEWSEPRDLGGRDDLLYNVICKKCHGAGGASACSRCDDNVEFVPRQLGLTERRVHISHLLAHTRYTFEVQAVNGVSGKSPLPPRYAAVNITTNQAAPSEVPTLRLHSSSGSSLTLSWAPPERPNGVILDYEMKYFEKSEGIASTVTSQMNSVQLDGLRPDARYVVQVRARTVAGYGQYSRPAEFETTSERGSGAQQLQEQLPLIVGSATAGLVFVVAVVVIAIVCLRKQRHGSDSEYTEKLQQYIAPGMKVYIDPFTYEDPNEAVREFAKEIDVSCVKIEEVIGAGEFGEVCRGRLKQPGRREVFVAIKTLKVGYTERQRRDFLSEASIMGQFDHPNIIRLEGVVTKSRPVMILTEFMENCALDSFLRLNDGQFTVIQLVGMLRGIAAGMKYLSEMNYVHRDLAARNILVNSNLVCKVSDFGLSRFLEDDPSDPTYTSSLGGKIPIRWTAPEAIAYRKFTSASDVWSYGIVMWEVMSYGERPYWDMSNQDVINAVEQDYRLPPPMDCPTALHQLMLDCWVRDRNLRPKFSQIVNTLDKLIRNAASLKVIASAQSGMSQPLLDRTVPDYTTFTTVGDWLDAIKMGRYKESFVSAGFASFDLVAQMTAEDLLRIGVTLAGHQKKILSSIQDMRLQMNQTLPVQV
Sequence of CDK3 (Q00526 whole entry): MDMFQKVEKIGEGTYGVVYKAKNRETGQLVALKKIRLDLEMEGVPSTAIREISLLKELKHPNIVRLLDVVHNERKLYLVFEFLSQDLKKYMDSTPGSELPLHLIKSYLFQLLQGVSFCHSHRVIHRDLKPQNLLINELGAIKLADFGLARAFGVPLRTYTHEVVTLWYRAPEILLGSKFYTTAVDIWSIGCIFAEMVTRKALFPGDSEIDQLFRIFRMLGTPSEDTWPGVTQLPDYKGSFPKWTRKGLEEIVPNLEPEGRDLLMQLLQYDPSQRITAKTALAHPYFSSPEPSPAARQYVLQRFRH
Sequence of TSSK3 (Q96PN8 whole entry): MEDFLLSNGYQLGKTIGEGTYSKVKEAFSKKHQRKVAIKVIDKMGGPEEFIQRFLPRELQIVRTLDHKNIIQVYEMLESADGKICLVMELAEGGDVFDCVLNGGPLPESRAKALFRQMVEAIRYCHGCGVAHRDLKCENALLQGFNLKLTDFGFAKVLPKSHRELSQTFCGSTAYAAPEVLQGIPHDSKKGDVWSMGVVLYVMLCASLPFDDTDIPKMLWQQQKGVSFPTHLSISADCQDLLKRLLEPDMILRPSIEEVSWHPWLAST

CNS(=O)(=O)c1ccc(N(C)C)c(Nc2nc(C)nc3cc(OC)c(OC)cc23)c1 [compound 15, 3-((6,7-dimethoxy-2-methylquinazolin-4-yl)amino)-4-(dimethylamino)-N-methylbenzenesulfonamide]
inhibition at 1 µM (CAMK2G): 0%
inhibition at 1 µM (CDK3): 56%
inhibition at 1 µM (CSNK1G2): 0%
inhibition at 1 µM (CSNK1G3): 0%
inhibition at 1 µM (DYRK1A): 15%
inhibition at 1 µM (EPHB3): 0%
inhibition at 1 µM (ERK1): 0%
inhibition at 1 µM (FLT3(D835V)): 37%
inhibition at 1 µM (FLT3(ITD,D835V)): 26%
inhibition at 1 µM (FLT3(N841I)): 0%
inhibition at 1 µM (GRK1): 20%
inhibition at 1 µM (ITK): 0%
inhibition at 1 µM (MAP3K15): 28%
inhibition at 1 µM (MEK3): 22%
inhibition at 1 µM (MST1R): 9%
inhibition at 1 µM (PIP5K1A): 22%
inhibition at 1 µM (PKN2): 0%
inhibition at 1 µM (PRKCD): 1%
inhibition at 1 µM (PRKCE): 11%
inhibition at 1 µM (RIPK5): 12%
inhibition at 1 µM [1]: 3%
inhibition at 1 µM (TAOK3): 16%
inhibition at 1 µM (TSSK3): 28%
inhibition at 1 µM (WNK2): 14%
